We go through 36 molecules from patent US8338608B2, “Inhibitors of ion channels” (Icagen Inc., priority 2005, dated 2012).

The target of the first assay is T1, hSCN3A (Homo sapiens, UniProt Q9NY46).
T1 construct: expressed in transfected cells
T1 sequence (Q9NY46 whole entry): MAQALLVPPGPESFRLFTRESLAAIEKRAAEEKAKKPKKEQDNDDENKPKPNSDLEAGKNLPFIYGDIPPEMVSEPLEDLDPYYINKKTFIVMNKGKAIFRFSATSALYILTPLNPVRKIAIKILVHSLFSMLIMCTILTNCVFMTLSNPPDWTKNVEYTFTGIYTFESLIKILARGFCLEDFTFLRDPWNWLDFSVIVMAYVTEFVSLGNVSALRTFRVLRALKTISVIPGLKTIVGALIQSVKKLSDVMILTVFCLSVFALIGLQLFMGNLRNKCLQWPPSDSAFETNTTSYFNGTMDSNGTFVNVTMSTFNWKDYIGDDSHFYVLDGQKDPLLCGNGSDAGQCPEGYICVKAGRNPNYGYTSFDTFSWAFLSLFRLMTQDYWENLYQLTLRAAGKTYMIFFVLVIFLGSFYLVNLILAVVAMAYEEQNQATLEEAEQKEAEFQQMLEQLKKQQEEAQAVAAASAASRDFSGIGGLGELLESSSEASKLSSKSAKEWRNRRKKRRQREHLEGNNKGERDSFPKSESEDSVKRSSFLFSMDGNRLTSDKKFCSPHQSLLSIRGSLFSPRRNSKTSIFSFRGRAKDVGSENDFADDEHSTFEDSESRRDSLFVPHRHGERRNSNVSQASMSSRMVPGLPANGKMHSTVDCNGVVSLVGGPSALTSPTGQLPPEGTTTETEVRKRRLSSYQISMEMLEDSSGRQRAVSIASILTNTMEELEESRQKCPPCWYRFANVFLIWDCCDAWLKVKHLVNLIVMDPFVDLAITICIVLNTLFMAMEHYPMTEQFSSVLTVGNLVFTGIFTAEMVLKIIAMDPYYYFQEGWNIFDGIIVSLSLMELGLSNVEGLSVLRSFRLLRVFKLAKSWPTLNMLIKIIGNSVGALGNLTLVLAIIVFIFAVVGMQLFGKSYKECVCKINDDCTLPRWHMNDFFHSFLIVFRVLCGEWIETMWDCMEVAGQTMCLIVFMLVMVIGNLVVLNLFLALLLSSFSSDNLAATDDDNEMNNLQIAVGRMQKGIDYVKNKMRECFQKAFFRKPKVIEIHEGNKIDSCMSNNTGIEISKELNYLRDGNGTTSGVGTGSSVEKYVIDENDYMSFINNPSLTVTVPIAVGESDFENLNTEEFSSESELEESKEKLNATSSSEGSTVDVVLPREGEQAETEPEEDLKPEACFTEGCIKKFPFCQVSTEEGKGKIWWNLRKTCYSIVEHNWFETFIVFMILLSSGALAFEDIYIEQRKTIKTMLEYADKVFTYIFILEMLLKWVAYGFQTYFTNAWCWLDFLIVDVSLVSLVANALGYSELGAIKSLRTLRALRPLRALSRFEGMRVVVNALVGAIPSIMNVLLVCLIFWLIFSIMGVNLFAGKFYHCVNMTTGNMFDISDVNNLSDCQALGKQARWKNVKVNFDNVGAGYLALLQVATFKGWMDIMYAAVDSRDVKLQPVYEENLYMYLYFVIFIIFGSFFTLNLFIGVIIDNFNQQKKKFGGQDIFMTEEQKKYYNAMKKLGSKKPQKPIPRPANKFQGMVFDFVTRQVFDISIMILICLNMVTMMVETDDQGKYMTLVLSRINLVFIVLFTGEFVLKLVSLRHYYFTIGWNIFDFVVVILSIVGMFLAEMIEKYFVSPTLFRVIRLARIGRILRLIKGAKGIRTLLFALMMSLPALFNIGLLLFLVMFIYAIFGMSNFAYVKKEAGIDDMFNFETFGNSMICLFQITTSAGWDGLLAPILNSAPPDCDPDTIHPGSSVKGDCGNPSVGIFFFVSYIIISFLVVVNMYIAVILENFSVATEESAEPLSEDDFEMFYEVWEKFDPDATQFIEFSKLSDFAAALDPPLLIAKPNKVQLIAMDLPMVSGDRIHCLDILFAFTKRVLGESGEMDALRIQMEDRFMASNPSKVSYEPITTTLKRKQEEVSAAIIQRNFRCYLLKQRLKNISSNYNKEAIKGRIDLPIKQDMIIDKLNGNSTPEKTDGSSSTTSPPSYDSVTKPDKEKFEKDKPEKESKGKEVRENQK
Briefly: SCN3A inhibitory activity in HEK cells stably expressing hSCN3A (whole-cell patch clamp / radiotracer efflux HTS). In kind it is cell-based.
Details: not given
`O=S(=O)(Nc1nccs1)c1ccc(S(=O)(=O)N2CC(COc3cccc(Cl)c3)C2)cc1` [Compound 36, 4-[3-(3-Chloro-phenoxymethyl)-azetidine-1-sulfonyl]-N-thiazol-2-yl-benzenesulfonamide] yielded an IC50 of 100 to 500 nM.

Still in this assay, the particulars now being: HEK cells stably transfected with hSCN3A; read-out: SCN3A Inhibitory Activity.
Consider `O=S(=O)(Nc1ccc(S(=O)(=O)Nc2nccs2)cc1)N[C@@H]1C[C@H]1c1ccccc1` (relative stereo) [Compound 4, N-(trans-2-phenylcyclopropyl)-N′-[4-(N-thiazol-2-yl-sulfonamyl)-phenyl]-sulfamide], for which the IC50 is below 100 nM.

Consider `O=S(=O)(NCC(c1ccccc1)c1ccccc1)Nc1ccc(S(=O)(=O)Nc2nccs2)cc1` [Compound 1], for which the IC50 is below 100 nM.

For the molecule `O=S(=O)(NCCC(c1ccccc1)c1ccccc1)Nc1ccc(S(=O)(=O)Nc2nccs2)cc1` [Compound 2, N-(3,3-diphenylpropyl]-N′-[4-(N-thiazol-2-yl-sulfonamyl)-phenyl]-sulfamide], the IC50 is below 100 nM.

Take `O=S(=O)(NCCc1ccc(Cl)c(Cl)c1)Nc1ccc(S(=O)(=O)Nc2nccs2)cc1` [Compound 3]: the IC50 was below 100 nM.

For the molecule `O=S(=O)(NCCc1ccc(Oc2ccccc2)cc1)Nc1ccc(S(=O)(=O)Nc2nccs2)cc1` [Compound 5, N-[2-(4-phenoxyl-phenyl)-ethyl]-N′-[4-(N-thiazol-2-yl-sulfonamyl)-phenyl]-sulfamide], the IC50 was below 100 nM.

Regarding `CC(C)(C)c1ccc(OCCNS(=O)(=O)c2ccc(S(=O)(=O)Nc3ncc(Cl)s3)cc2)cc1` [Compound 6, Benzene-1,4-disulfonic acid 1-{[2-(4-tert-butyl-phenoxy)-ethyl]-amide} 4-[(5-chloro-thiazol-2-yl)-amide]], the IC50 was below 100 nM.

Consider `CC(C)(C)CCNS(=O)(=O)c1ccc(S(=O)(=O)Nc2ncc(Cl)s2)cc1` [Compound 7, Benzene-1,4-disulfonic acid 1-[(5-chloro-thiazol-2-yl)-amide] 4-[(3,3-dimethyl-butyl)-amide]], for which the IC50 was below 100 nM.

For the molecule `O=S(=O)(Nc1nccs1)c1ccc(S(=O)(=O)N2CCC(Oc3cccc(Cl)c3)CC2)cc1` [Compound 8, 4-[4-(3-Chloro-phenoxy)-piperidine-1-sulfonyl]-N-thiazol-2-yl-benzenesulfonamide], the IC50 was below 100 nM.

In the case of `O=S(=O)(NCC1COc2cc(Cl)c(Cl)cc2O1)c1ccc(S(=O)(=O)Nc2nccs2)cc1` (stereo not drawn) [Compound 9, Benzene-1,4-disulfonic acid 1-[(6,7-dichloro-2,3-dihydro-benzo[1,4]dioxin-2-ylmethyl)-amide] 4-thiazol-2-ylamide], the IC50 is below 100 nM.

Consider `O=S(=O)(Nc1ncc(Cl)s1)c1ccc(S(=O)(=O)N2CCN(c3ccc(Cl)cc3F)CC2)cc1` [Compound 10, 4-[4-(4-Chloro-2-fluoro-phenyl)-piperazine-1-sulfonyl]-N-(5-chloro-thiazol-2-yl)-benzenesulfonamide], for which the IC50 was below 100 nM.

For `CC(C)(C)c1ccc(CNS(=O)(=O)c2ccc(S(=O)(=O)Nc3nccs3)cc2)cc1` [Compound 11, Benzene-1,4-disulfonic acid 1-(4-tert-butyl-benzylamide) 4-thiazol-2-ylamide], the IC50 was below 100 nM.

For the molecule `O=S(=O)(NCCCOc1ccc(Cl)cc1)c1ccc(S(=O)(=O)Nc2ncc(Cl)s2)cc1` [Compound 12, Benzene-1,4-disulfonic acid 1-{[3-(4-chloro-phenoxy)-propyl]-amide} 4-[(5-chloro-thiazol-2-yl)-amide]], the IC50 was below 100 nM.

As to `CN(CCNS(=O)(=O)c1ccc(S(=O)(=O)Nc2nccs2)cc1)c1ccc(Cl)cc1` [Compound 13, Benzene-1,4-disulfonic acid 1-({2-[(4-chloro-phenyl)-methyl-amino]-ethyl}-amide) 4-thiazol-2-ylamide], the IC50 was below 100 nM.

Consider `CC(C)(CNS(=O)(=O)c1ccc(S(=O)(=O)Nc2ncc(Cl)s2)cc1)Oc1ccc(C(C)(C)C)cc1` [Compound 14, Benzene-1,4-disulfonic acid 1-{[2-(4-tert-butyl-phenoxy)-2-methyl-propyl]-amide} 4-[(5-chloro-thiazol-2-yl)-amide]], for which the IC50 is below 100 nM.

For the molecule `O=S(=O)(NCc1ccc(C(F)(F)F)cc1)c1ccc(S(=O)(=O)Nc2ncc(Cl)s2)cc1` [Compound 15, Benzene-1,4-disulfonic acid 1-[(5-chloro-thiazol-2-yl)-amide] 4-(4-trifluoromethyl-benzylamide)], the IC50 was below 100 nM.

For the molecule `CC(C)(C)c1ccc(NCCNS(=O)(=O)c2ccc(S(=O)(=O)Nc3nccs3)cc2)cc1` [Compound 16, Benzene-1,4-disulfonic acid 1-{[2-(4-tert-butyl-phenylamino)-ethyl]-amide} 4-thiazol-2-ylamide], the IC50 was below 100 nM.

For the molecule `O=S(=O)(NCC1(Oc2ccc(Cl)cc2)CCC1)c1ccc(S(=O)(=O)Nc2nccs2)cc1` [Compound 17, Benzene-1,4-disulfonic acid 1-{[1-(4-chloro-phenoxy)-cyclobutylmethyl]-amide} 4-thiazol-2-ylamide], the IC50 is below 100 nM.

Regarding `Cc1cc(OCCNS(=O)(=O)c2ccc(S(=O)(=O)Nc3nccs3)cc2)ccc1Cl` [Compound 18, Benzene-1,4-disulfonic acid 1-{[2-(4-chloro-3-methyl-phenoxy)-ethyl]-amide} 4-thiazol-2-ylamide], the IC50 is below 100 nM.

Turning to `O=S(=O)(Nc1nccs1)c1ccc(S(=O)(=O)N2CCC[C@H]2COc2ccc(Cl)cc2)cc1` [Compound 19, 4-[(S)-2-(4-chloro-phenoxymethyl)-pyrrolidine-1-sulfonyl]-N-thiazol-2-yl-benzenesulfonamide], the IC50 was below 100 nM.

Turning to `O=S(=O)(NCC1(Oc2ccc(Cl)cc2F)CCC1)c1ccc(S(=O)(=O)Nc2nccs2)cc1` [Compound 20, Benzene-1,4-disulfonic acid 1-{[1-(4-chloro-2-fluoro-phenoxy)-cyclobutylmethyl]-amide} 4-thiazol-2-ylamide], the IC50 is below 100 nM.

With `O=S(=O)(NCC1(c2ccc(Cl)cc2)CCC1)c1ccc(S(=O)(=O)Nc2nccs2)cc1` [Compound 21, Benzene-1,4-disulfonic acid 1-{[1-(4-chloro-phenyl)-cyclobutylmethyl]-amide} 4-thiazol-2-ylamide], the IC50 was below 100 nM.

For `O=S(=O)(NCCC(c1ccccc1)c1ccccc1)Nc1ccc(S(=O)(=O)Nc2nccs2)nc1` [Compound 22], the IC50 lay within 100 to 500 nM.

With `O=S(=O)(Nc1nccs1)c1ccc(NS(=O)(=O)N2CCN(c3ccc(Cl)c(Cl)c3)CC2)cc1` [Compound 23, 4-(3,4-Dichloro-phenyl)-piperazine-1-sulfonic acid [4-(thiazol-2-ylsulfamoyl)-phenyl]-amide], the IC50 was in the range of 100 to 500 nM.

Regarding `O=S(=O)(NCC(c1ccccc1)c1ccccc1)c1ccc(S(=O)(=O)Nc2nccs2)cc1` [Compound 24, Benzene-1,4-disulfonic acid 1-[(2,2-diphenyl-ethyl)-amide] 4-thiazol-2-ylamide], the IC50 fell in the range of 100 to 500 nM.

On to `O=S(=O)(NCCc1ccc(Cl)c(Cl)c1)c1cc(F)c(S(=O)(=O)Nc2nccs2)cc1F` [Compound 25, 2,5-Difluoro-benzene-1,4-disulfonic acid 1-{[2-(3,4-dichloro-phenyl)-ethyl]-amide} 4-thiazol-2-ylamide], for which the IC50 fell in the range of 100 to 500 nM.

Take `O=S(=O)(Nc1ncc(Cl)s1)c1ccc(S(=O)(=O)N2CC(Oc3ncc(C(F)(F)F)cc3Cl)C2)cc1` [Compound 26, N-(5-chloro-thiazol-2-yl)-4-[3-(3-chloro-5-trifluoromethyl-pyridin-2-yloxy)-azetidine-1-sulfonyl]-benzenesulfonamide]: the IC50 is 100 to 500 nM.

In the case of `O=S(=O)(NCCc1ccc(Cl)cc1)c1ccc(S(=O)(=O)Nc2nccs2)cc1` [Compound 27, Benzene-1,4-disulfonic acid 1-{[2-(4-chloro-phenyl)-ethyl]-amide} 4-thiazol-2-ylamide], the IC50 lay in the range of 100 to 500 nM.

In the case of `O=S(=O)(Nc1ncc(Cl)s1)c1ccc(S(=O)(=O)N2CC(=Cc3ccc(Cl)c(Cl)c3)C2)cc1` [Compound 28, N-(5-chloro-thiazol-2-yl)-4-[3-(3,4-dichloro-benzylidene)-azetidine-1-sulfonyl]-benzenesulfonamide], the IC50 lay in the range of 100 to 500 nM.

For `O=S(=O)(Nc1nccs1)c1ccc(S(=O)(=O)N2CCC(Cc3ccc(Cl)cc3)CC2)cc1` [Compound 29, 4-[4-(4-Chloro-benzyl)-piperidine-1-sulfonyl]-N-thiazol-2-yl-benzenesulfonamide], the IC50 lay in the range of 100 to 500 nM.

Take `O=S(=O)(Nc1nccs1)c1ccc(S(=O)(=O)NC2CCCCCC2)cc1` [Compound 30, Benzene-1,4-disulfonic acid 1-cycloheptylamide 4-thiazol-2-ylamide]: the IC50 lay within 100 to 500 nM.

On to `CC(C)(CNS(=O)(=O)c1ccc(S(=O)(=O)Nc2nccs2)cc1)Nc1ccc(C(C)(C)C)cc1` [Compound 31, Benzene-1,4-disulfonic acid 1-{[2-(4-tert-butyl-phenylamino)-2-methyl-propyl]-amide} 4-thiazol-2-ylamide], for which the IC50 was in the range of 100 to 500 nM.

Take `C[C@H](CNS(=O)(=O)c1ccc(S(=O)(=O)Nc2ncc(Cl)s2)cc1)Oc1ccc(Cl)cc1` [Compound 32, Benzene-1,4-disulfonic acid 1-{[(R)-2-(4-chloro-phenoxy)-propyl]-amide} 4-[(5-chloro-thiazol-2-yl)-amide]]: the IC50 lay in the range of 100 to 500 nM.

As to `C[C@@H](CNS(=O)(=O)c1ccc(S(=O)(=O)Nc2ncc(Cl)s2)cc1)Oc1ccc(Cl)cc1` [Compound 33, Benzene-1,4-disulfonic acid 1-{[(S)-2-(4-chloro-phenoxy)-propyl]-amide} 4-[(5-chloro-thiazol-2-yl)-amide]], the IC50 lay in the range of 100 to 500 nM.

In the case of `O=S(=O)(NCCOc1ccc(Cl)cc1F)c1ccc(S(=O)(=O)Nc2nccs2)cc1` [Compound 34, Benzene-1,4-disulfonic acid 1-{[2-(4-chloro-2-fluoro-phenoxy)-ethyl]-amide} 4-thiazol-2-ylamide], the IC50 was 100 to 500 nM.

In the case of `CN(CCOc1ccc(C(C)(C)C)cc1)S(=O)(=O)c1ccc(S(=O)(=O)Nc2nccs2)cc1` [Compound 35, Benzene-1,4-disulfonic acid 1-{[2-(4-tert-butyl-phenoxy)-ethyl]-methyl-amide} 4-thiazol-2-ylamide], the IC50 fell in the range of 100 to 500 nM.
